In patent US7402548B2, “Benzoxazole compounds, process for producing the same and herbicides” (Kyoyu Agri Co., Ltd., priority 2000, dated 2008):

How the values were obtained:
[1] = test system: livid amaranth; assay: Soil treatment test for upland field; format: in vivo, Amaranthus lividus; set-up: key: 0 = normal development, 5 = all killed; settings: 500 g/ha, 3 weeks, glass house 25° C.
Procedure, shortened: (§1)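 Surface spray of freshly sown alluvial soil, 500 g/ha compound, water containing 0.05% surfactant. Visual 0–5 damage rating versus untreated after 3 weeks, glasshouse at 25° C average.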

[2] = test system: corn; assay: Soil treatment test for upland field; format: in vivo; set-up: key: 0 = normal development, 5 = all killed; settings: 500 g/ha, 3 weeks, glass house 25° C.
Procedure, shortened: as §1

[3] = test system: wheat; assay: Soil treatment test for upland field; format: in vivo; set-up: key: 0 = normal development, 5 = all killed; settings: 500 g/ha, 3 weeks, glass house 25° C.
Procedure, shortened: as §1

[4] = test system: livid amaranth; assay: Foliar spread test for upland field; format: in vivo, Amaranthus lividus; set-up: key: 0 = normal development, 5 = all killed (6 ranks vs. untreated); settings: foliar spray, 500 ppm, 3 weeks, glass house 25° C.
Procedure, shortened: (§2)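 Scores on a 0–5 scale (0 normal development, 5 all killed), relative to untreated controls, were taken 3 weeks post-treatment in a 25 °C glass house. Treatment was a uniform foliar spray at 500 ppm (0.5% surfactant) onto roughly 2-week-old soil-grown plants.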

[5] = test system: monochoria; assay: Herbicidal test for paddy field; format: in vivo, Monochoria vaginalis; settings: 500 g/ha, dropwise addition to paddy water at 1.5 leaf stage of barnyard grass; glass house 25° C., 3 weeks; rank 0-5 vs non-treated district
Procedure: (§3) Wagner pots, each having an area of 1/5000 are, were packed with Ube soil (alluvial soil) and planted with seeds or tubers of young rice plant, barnyard grass, bulrush, Cyperus serotinus Rottb., arrowhead and monochoria. Then, the pots were filled with water to a depth of 3 cm.
(§4) Each wettable powder of the desired Compounds (I) shown in Tables 1 to 21, 24, 25, 28 and 29 prepared in accordance with Example 2 was diluted with water containing a surfactant (0.05%) and subjected to dropwise addition treatment by using pipet so that an effective concentration of the compound (I) in each herbicide became 500 g/ha at 1.5 leaf stage of barnyard grass.
(§5) These plants were controlled in a glass house at an average temperature of 25° C. for 3 weeks, and then herbicidal effects thereof were investigated.
(§6) The herbicidal effects are evaluated according to the following 6 ranks as compared with non-treated district. (0: normal development, 1: Less damaged, 2: Slightly damaged, 3: Moderately damaged, 4: Severely damaged, 5: All killed). Incidentally, “-” in the column means not investigated.

[6] = test system: Large crabgrass; assay: Soil treatment test for upland field; format: in vivo, Digitaria adscendens; set-up: key: 0 = normal development, 5 = all killed; settings: 500 g/ha, 3 weeks, glass house 25° C.
Procedure, shortened: as §1

[7] = test system: barnyard grass; assay: Soil treatment test for upland field; format: in vivo, Eschinochloa crusgalli; set-up: key: 0 = normal development, 5 = all killed; settings: 500 g/ha, 3 weeks, glass house 25° C.
Procedure, shortened: as §1

[8] = test system: barnyard grass; assay: Herbicidal test for paddy field; format: in vivo, Eschinochloa crusgalli; settings: 500 g/ha, dropwise addition to paddy water at 1.5 leaf stage of barnyard grass; glass house 25° C., 3 weeks; rank 0-5 vs non-treated district
Procedure: as §3, §4, §5, §6

[9] = test system: common lambsquarters; assay: Soil treatment test for upland field; format: in vivo, Chenopodium album; set-up: key: 0 = normal development, 5 = all killed; settings: 500 g/ha, 3 weeks, glass house 25° C.
Procedure, shortened: as §1

[10] = test system: common lambsquarters; assay: Foliar spread test for upland field; format: in vivo, Chenopodium album; set-up: key: 0 = normal development, 5 = all killed (6 ranks vs. untreated); settings: foliar spray, 500 ppm, 3 weeks, glass house 25° C.
Procedure, shortened: as §2

[11] = test system: wheat; assay: Foliar spread test for upland field; format: in vivo; set-up: key: 0 = normal development, 5 = all killed (6 ranks vs. untreated); settings: foliar spray, 500 ppm, 3 weeks, glass house 25° C.
Procedure, shortened: as §2

[12] = test system: annual bluegrass; assay: Soil treatment test for upland field; format: in vivo, Poa annua; set-up: key: 0 = normal development, 5 = all killed; settings: 500 g/ha, 3 weeks, glass house 25° C.
Procedure, shortened: as §1

[13] = test system: green foxtail; assay: Soil treatment test for upland field; format: in vivo, Setaria viridis; set-up: key: 0 = normal development, 5 = all killed; settings: 500 g/ha, 3 weeks, glass house 25° C.
Procedure, shortened: as §1

[14] = test system: annual bluegrass; assay: Foliar spread test for upland field; format: in vivo, Poa annua; set-up: key: 0 = normal development, 5 = all killed (6 ranks vs. untreated); settings: foliar spray, 500 ppm, 3 weeks, glass house 25° C.
Procedure, shortened: as §2

[15] = test system: blackgrass; assay: Foliar spread test for upland field; format: in vivo, Alopecurus aegualis; set-up: key: 0 = normal development, 5 = all killed (6 ranks vs. untreated); settings: foliar spray, 500 ppm, 3 weeks, glass house 25° C.
Procedure, shortened: as §2

[16] = test system: morning glory; assay: Foliar spread test for upland field; format: in vivo, Ipomoea spps.; set-up: key: 0 = normal development, 5 = all killed (6 ranks vs. untreated); settings: foliar spray, 500 ppm, 3 weeks, glass house 25° C.
Procedure, shortened: as §2

[17] = test system: Xanthium pensylvanicum; assay: Foliar spread test for upland field; format: in vivo; set-up: key: 0 = normal development, 5 = all killed; settings: foliar spray, 500 ppm, 3 weeks, glass house 25° C.
Procedure: as §6
(§7) Wagner pots, each having an area of 1/5000 are, were packed with volcanic ash soil and then each seed of corn, soybean, cotton, wheat, solgum, sugar beat, Large crabgrass, barnyardgrjass, green foxtail, blackgrass, annual bluegrass, common lambsquarters, livid amaranth, velvetleaf, morning glory, Xanthium pensylvanicum and Cassia obtusifolia was planted, covered with soil and grown in a glass house at an average temperature of 25° C. for about 2 weeks.
(§8) Each wettable powder of the desired compounds (I) shown in Tables 1 to 21, 24, 25, 28 and 29 prepared in accordance with Example 2 was diluted to 500 ppm with water containing a surfactant (0.5%) and then uniformly sprayed on the above respective plants.
(§9) After these plants were controlled in a glass house at an average temperature of 25° C. for 3 weeks, the herbicidal effects thereof were investigated.
(§10) The herbicidal effects were evaluated according to the evaluation method described in the above (1).

[18] = test system: Cassia obtusifolia; assay: Foliar spread test for upland field; format: in vivo; set-up: key: 0 = normal development, 5 = all killed; settings: foliar spray, 500 ppm, 3 weeks, glass house 25° C.
Procedure: as §6, §7, §8, §9, §10

[19] = test system: barnyardgrjass; assay: Foliar spread test for upland field; format: in vivo, Eschinochloa crusgalli; set-up: key: 0 = normal development, 5 = all killed (6 ranks vs. untreated); settings: foliar spray, 500 ppm, 3 weeks, glass house 25° C.
Procedure, shortened: as §2

[20] = test system: arrowhead; assay: Herbicidal test for paddy field; format: in vivo, Sagittaria pygmaea; settings: 500 g/ha, dropwise addition to paddy water at 1.5 leaf stage of barnyard grass; glass house 25° C., 3 weeks; rank 0-5 vs non-treated district
Procedure: as §3, §4, §5, §6

[21] = test system: velvetleaf; assay: Foliar spread test for upland field; format: in vivo, Abutilon theophrasti; set-up: key: 0 = normal development, 5 = all killed (6 ranks vs. untreated); settings: foliar spray, 500 ppm, 3 weeks, glass house 25° C.
Procedure, shortened: as §2

[22] = test system: corn; assay: Foliar spread test for upland field; format: in vivo; set-up: key: 0 = normal development, 5 = all killed (6 ranks vs. untreated); settings: foliar spray, 500 ppm, 3 weeks, glass house 25° C.
Procedure, shortened: as §2

[23] = test system: sugar beat; assay: Foliar spread test for upland field; format: in vivo; set-up: key: 0 = normal development, 5 = all killed (6 ranks vs. untreated); settings: foliar spray, 500 ppm, 3 weeks, glass house 25° C.
Procedure, shortened: as §2

[24] = test system: cotton; assay: Foliar spread test for upland field; format: in vivo; set-up: key: 0 = normal development, 5 = all killed (6 ranks vs. untreated); settings: foliar spray, 500 ppm, 3 weeks, glass house 25° C.
Procedure, shortened: as §2

[25] = test system: soybean; assay: Foliar spread test for upland field; format: in vivo; set-up: key: 0 = normal development, 5 = all killed (6 ranks vs. untreated); settings: foliar spray, 500 ppm, 3 weeks, glass house 25° C.
Procedure, shortened: as §2

[26] = test system: solgum; assay: Foliar spread test for upland field; format: in vivo; set-up: key: 0 = normal development, 5 = all killed (6 ranks vs. untreated); settings: foliar spray, 500 ppm, 3 weeks, glass house 25° C.
Procedure, shortened: as §2

[27] = test system: Large crabgrass; assay: Foliar spread test for upland field; format: in vivo, Digitaria adscendens; set-up: key: 0 = normal development, 5 = all killed (6 ranks vs. untreated); settings: foliar spray, 500 ppm, 3 weeks, glass house 25° C.
Procedure, shortened: as §2

[28] = test system: Cyperus serotinus Rottb.; assay: Herbicidal test for paddy field; format: in vivo; settings: 500 g/ha, dropwise addition to paddy water at 1.5 leaf stage of barnyard grass; glass house 25° C., 3 weeks; rank 0-5 vs non-treated district
Procedure: as §3, §4, §5, §6

[29] = test system: bulrush; assay: Herbicidal test for paddy field; format: in vivo, Scrips juncoides; settings: 500 g/ha, dropwise addition to paddy water at 1.5 leaf stage of barnyard grass; glass house 25° C., 3 weeks; rank 0-5 vs non-treated district
Procedure: as §3, §4, §5, §6

[30] = test system: green foxtail; assay: Foliar spread test for upland field; format: in vivo, Setaria viridis; set-up: key: 0 = normal development, 5 = all killed (6 ranks vs. untreated); settings: foliar spray, 500 ppm, 3 weeks, glass house 25° C.
Procedure, shortened: as §2

[31] = test system: sugar beat; assay: Soil treatment test for upland field; format: in vivo; set-up: key: 0 = normal development, 5 = all killed; settings: 500 g/ha, 3 weeks, glass house 25° C.
Procedure, shortened: as §1

[32] = test system: soybean; assay: Soil treatment test for upland field; format: in vivo; set-up: key: 0 = normal development, 5 = all killed; settings: 500 g/ha, 3 weeks, glass house 25° C.
Procedure, shortened: as §1

[33] = test system: solgum; assay: Soil treatment test for upland field; format: in vivo; set-up: key: 0 = normal development, 5 = all killed; settings: 500 g/ha, 3 weeks, glass house 25° C.
Procedure, shortened: as §1

[34] = test system: morning glory; assay: Soil treatment test for upland field; format: in vivo, Ipomoea spps.; set-up: key: 0 = normal development, 5 = all killed; settings: 500 g/ha, 3 weeks, glass house 25° C.
Procedure, shortened: as §1

[35] = test system: velvetleaf; assay: Soil treatment test for upland field; format: in vivo, Abutilon theophrasti; set-up: key: 0 = normal development, 5 = all killed; settings: 500 g/ha, 3 weeks, glass house 25° C.
Procedure, shortened: as §1

[36] = test system: blackgrass; assay: Soil treatment test for upland field; format: in vivo, Alopecurus aegualis; set-up: key: 0 = normal development, 5 = all killed; settings: 500 g/ha, 3 weeks, glass house 25° C.
Procedure, shortened: as §1

| SMILES | Effects Livid amaranth [1] | Effects Corn [2] | Effects Wheat [3] | Effects Livid amaranth [4] | Effects Monochoria [5] | Effects Large crabgrass [6] | Effects Barnyardgrass [7] | Effects Barnyardgrass [8] | Effects Common lambsquarters [9] | Effects Common lambsquarters [10] | Effects Wheat [11] | Effects Annual bluegrass [12] | Effects Green foxtail [13] | Effects Annual bluegrass [14] | Effects Blackgrass [15] | Effects Morning glory [16] | Effects Barnyardgrass [19] | Effects Velvetleaf [21] | Effects Corn [22] | Effects Sugar beat [23] | further results |
| --- | --- | --- | --- | --- | --- | --- | --- | --- | --- | --- | --- | --- | --- | --- | --- | --- | --- | --- | --- | --- | --- |
| CCC(Oc1cc(C(F)(F)F)nn1C)c1nc2cc(C#N)c(Cl)cc2o1 (centres unmarked) [Compound 1-e-11] | 5 | 0 | 0 | 5 | 4 | 5 | 4 | 4 | 5 | 5 | 1 | 5 | 5 |  |  |  |  |  |  |  |  |
| CCC(Oc1cc(C)nc(SC)n1)c1nc2cc(Cl)ccc2o1 (centres unmarked) [Compound 1-e-64] |  |  |  |  | 4 |  |  |  |  |  |  |  |  |  |  |  |  |  |  |  |  |
| CCC(Oc1cc(C(F)(F)F)ncn1)c1nc2cc(Cl)ccc2o1 (centres unmarked) [Compound 1-e-66] |  |  |  |  | 5 |  |  | 2 |  |  |  |  |  |  |  |  |  |  |  |  |  |
| N#Cc1ccc2oc(-c3cccc(Oc4cccc(C(F)(F)F)c4)n3)nc2c1 [I-a-18] |  |  |  | 5 |  |  |  | 3 |  | 4 | 1 |  |  | 2 | 1 | 5 | 1 | 4 | 1 | 4 | Effects Common Cocklebur [17]: 4; Effects Sicklepod [18]: 5; Effects Arrowhead [20]: 0; Effects Sotton [24]: 4; Effects Soybean [25]: 3; Effects Solgum [26]: 1; Effects Large crabgrass [27]: 2; Effects Cyperus serotinus Rottb. [28]: 0; Effects Bulrush [29]: 0; Effects Green foxtail [30]: 5 |
| CCC(=Cc1cccc(C(F)(F)F)c1)c1nc2cc(C#N)c(F)cc2o1 [I-c-137] | 5 | 2 | 1 | 5 |  | 5 | 5 | 4 | 5 | 5 | 2 | 5 | 5 | 4 | 3 | 5 | 3 | 4 | 3 | 4 | Effects Sugar beat [31]: 5; Effects Soybean [32]: 3; Effects Solgum [33]: 2; Effects Morning glory [34]: 5; Effects Sotton [24]: 4; Effects Soybean [25]: 5; Effects Solgum [26]: 2; Effects Large crabgrass [27]: 4; Effects Cyperus serotinus Rottb. [28]: 2; Effects Bulrush [29]: 4; Effects Velvetleaf [35]: 5; Effects Blackgrass [36]: 5; Effects Green foxtail [30]: 4 |
| CCCC(=Cc1cccc(C(F)(F)F)c1)c1nc2cc(C#N)c(F)cc2o1 [I-c-139] | 5 | 2 | 2 | 5 |  | 5 | 5 | 4 | 5 | 5 | 2 | 5 | 5 | 4 | 4 | 5 | 3 | 4 | 2 | 4 | Effects Sugar beat [31]: 5; Effects Soybean [32]: 5; Effects Solgum [33]: 3; Effects Morning glory [34]: 5; Effects Sotton [24]: 4; Effects Soybean [25]: 5; Effects Solgum [26]: 2; Effects Large crabgrass [27]: 4; Effects Cyperus serotinus Rottb. [28]: 1; Effects Bulrush [29]: 3; Effects Velvetleaf [35]: 5; Effects Blackgrass [36]: 5; Effects Green foxtail [30]: 4 |
